Nine compounds from ChEMBL document CHEMBL3991601, “The target landscape of clinical kinase drugs” (Science, 2017) can be followed below.

Activity calls are given as the source filed them. For most assays here, no stated cut-off is given here; in the data, actives have a measured Kd and inactives only a lower limit.

In assay [1] the target is Tyrosine-protein kinase JAK1 (Homo sapiens, UniProt P23458).
Assay [2] deals with Platelet-derived growth factor receptor beta (Homo sapiens, UniProt P09619).
Platelet-derived growth factor receptor beta, sequence (P09619 whole entry): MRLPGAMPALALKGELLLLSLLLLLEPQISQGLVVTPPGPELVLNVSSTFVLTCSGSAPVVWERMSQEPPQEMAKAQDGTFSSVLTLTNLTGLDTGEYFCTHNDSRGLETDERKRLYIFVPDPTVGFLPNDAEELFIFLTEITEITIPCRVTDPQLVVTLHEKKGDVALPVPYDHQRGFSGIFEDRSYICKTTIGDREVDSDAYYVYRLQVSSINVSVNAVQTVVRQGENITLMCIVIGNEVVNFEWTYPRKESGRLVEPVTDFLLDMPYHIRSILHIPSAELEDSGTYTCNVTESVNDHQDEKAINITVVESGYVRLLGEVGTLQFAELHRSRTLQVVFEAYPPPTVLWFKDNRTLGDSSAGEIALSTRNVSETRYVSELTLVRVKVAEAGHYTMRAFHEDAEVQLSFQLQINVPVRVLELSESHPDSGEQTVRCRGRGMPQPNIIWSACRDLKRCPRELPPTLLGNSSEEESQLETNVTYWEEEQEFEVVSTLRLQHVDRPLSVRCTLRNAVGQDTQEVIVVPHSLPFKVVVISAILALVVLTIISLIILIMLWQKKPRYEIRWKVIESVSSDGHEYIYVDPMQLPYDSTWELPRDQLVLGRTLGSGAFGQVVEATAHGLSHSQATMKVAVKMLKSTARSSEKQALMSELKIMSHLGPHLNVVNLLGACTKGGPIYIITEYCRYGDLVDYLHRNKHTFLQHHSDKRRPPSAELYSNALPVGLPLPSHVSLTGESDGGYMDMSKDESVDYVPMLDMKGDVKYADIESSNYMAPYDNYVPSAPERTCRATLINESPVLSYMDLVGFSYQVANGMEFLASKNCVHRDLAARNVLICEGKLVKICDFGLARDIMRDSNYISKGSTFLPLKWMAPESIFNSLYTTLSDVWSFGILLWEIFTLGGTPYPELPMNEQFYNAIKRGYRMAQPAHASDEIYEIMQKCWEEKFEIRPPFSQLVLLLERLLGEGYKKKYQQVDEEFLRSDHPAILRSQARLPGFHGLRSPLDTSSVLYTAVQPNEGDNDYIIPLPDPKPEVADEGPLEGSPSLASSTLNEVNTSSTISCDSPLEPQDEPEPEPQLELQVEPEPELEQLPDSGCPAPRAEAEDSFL
The target of a further assay is Ephrin type-A receptor 4 (Homo sapiens, UniProt P54764).
For assay [3], the target named is Citron Rho-interacting kinase (Homo sapiens, UniProt O14578).
Assay [4] concerns the target Mitogen-activated protein kinase kinase kinase 4 (Homo sapiens, UniProt Q9Y6R4).
Assay [5] addresses Cyclin-dependent kinase 13 (Homo sapiens, UniProt Q14004).
Assay [6] has as its target ATP-dependent RNA helicase DDX3X (Homo sapiens, UniProt O00571).
Assay [7] has as its target T1, Serine/threonine-protein kinase D2 (Homo sapiens, UniProt Q9BZL6).
T1 sequence (Q9BZL6 whole entry): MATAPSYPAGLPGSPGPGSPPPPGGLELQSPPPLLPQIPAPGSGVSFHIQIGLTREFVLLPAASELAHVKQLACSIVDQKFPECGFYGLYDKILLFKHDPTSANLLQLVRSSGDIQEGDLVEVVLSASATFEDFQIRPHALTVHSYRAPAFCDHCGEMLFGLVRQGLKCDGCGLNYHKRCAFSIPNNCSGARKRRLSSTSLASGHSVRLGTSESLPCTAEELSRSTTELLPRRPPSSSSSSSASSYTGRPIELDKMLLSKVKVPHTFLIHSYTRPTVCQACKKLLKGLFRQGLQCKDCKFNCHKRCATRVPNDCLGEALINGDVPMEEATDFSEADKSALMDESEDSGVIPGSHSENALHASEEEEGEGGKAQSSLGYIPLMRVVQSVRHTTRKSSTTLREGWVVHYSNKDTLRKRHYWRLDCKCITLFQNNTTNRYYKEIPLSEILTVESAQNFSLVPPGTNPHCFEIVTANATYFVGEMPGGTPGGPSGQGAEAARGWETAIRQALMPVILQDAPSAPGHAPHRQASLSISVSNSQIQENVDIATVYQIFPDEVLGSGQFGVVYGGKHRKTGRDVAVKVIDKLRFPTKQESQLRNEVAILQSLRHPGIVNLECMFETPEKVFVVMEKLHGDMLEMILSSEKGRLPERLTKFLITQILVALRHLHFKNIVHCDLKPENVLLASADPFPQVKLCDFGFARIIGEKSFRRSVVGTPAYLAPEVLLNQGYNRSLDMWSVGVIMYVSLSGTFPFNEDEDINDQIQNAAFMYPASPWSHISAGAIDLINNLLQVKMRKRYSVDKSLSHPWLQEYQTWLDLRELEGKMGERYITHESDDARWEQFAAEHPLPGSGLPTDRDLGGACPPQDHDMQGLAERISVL

In assay [8] the target is T2, Ras-related protein Rab-27A (Homo sapiens, UniProt P51159).
T2 sequence (P51159 whole entry): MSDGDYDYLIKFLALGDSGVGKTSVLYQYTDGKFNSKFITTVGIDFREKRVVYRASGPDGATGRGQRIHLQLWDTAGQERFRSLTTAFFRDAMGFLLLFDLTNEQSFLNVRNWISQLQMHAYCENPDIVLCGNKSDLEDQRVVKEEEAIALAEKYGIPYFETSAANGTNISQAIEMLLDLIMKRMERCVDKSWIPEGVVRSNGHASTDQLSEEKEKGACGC

Assay [9] deals with DnaJ homolog subfamily A member 1 (Homo sapiens, UniProt P31689).
DnaJ homolog subfamily A member 1, sequence (P31689 whole entry): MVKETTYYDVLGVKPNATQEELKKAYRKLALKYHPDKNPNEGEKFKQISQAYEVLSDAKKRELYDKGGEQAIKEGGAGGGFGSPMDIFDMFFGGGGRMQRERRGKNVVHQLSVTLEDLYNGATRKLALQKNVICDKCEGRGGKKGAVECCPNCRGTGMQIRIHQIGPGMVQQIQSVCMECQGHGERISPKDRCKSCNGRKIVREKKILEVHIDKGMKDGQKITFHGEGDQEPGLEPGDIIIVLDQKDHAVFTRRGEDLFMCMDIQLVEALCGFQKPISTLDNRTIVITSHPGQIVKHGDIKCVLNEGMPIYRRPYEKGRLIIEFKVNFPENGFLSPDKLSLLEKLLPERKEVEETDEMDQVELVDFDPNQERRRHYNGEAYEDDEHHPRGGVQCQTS
Assay [10] concerns the target Myosin light chain kinase, smooth muscle (Homo sapiens, UniProt Q15746).
In assay [11] the target is T3, Delta(24)-sterol reductase (Homo sapiens, UniProt Q15392).
T3 sequence (Q15392 whole entry): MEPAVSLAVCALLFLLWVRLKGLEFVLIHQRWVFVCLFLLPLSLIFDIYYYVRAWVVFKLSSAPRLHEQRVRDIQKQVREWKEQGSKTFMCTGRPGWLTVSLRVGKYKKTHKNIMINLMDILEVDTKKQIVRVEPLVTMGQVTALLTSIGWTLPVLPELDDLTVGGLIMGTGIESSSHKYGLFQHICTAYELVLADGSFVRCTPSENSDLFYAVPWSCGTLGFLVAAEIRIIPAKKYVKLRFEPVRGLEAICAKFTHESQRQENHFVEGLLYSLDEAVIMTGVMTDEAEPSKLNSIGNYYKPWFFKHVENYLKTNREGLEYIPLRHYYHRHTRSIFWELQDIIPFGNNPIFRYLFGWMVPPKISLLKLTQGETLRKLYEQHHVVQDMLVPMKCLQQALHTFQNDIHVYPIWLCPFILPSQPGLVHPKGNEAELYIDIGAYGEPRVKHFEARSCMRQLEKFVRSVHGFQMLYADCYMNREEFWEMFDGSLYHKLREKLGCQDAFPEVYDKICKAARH

For assay [12], the target named is Mitotic checkpoint serine/threonine-protein kinase BUB1 (Homo sapiens, UniProt O43683).
Mitotic checkpoint serine/threonine-protein kinase BUB1, sequence (O43683 whole entry): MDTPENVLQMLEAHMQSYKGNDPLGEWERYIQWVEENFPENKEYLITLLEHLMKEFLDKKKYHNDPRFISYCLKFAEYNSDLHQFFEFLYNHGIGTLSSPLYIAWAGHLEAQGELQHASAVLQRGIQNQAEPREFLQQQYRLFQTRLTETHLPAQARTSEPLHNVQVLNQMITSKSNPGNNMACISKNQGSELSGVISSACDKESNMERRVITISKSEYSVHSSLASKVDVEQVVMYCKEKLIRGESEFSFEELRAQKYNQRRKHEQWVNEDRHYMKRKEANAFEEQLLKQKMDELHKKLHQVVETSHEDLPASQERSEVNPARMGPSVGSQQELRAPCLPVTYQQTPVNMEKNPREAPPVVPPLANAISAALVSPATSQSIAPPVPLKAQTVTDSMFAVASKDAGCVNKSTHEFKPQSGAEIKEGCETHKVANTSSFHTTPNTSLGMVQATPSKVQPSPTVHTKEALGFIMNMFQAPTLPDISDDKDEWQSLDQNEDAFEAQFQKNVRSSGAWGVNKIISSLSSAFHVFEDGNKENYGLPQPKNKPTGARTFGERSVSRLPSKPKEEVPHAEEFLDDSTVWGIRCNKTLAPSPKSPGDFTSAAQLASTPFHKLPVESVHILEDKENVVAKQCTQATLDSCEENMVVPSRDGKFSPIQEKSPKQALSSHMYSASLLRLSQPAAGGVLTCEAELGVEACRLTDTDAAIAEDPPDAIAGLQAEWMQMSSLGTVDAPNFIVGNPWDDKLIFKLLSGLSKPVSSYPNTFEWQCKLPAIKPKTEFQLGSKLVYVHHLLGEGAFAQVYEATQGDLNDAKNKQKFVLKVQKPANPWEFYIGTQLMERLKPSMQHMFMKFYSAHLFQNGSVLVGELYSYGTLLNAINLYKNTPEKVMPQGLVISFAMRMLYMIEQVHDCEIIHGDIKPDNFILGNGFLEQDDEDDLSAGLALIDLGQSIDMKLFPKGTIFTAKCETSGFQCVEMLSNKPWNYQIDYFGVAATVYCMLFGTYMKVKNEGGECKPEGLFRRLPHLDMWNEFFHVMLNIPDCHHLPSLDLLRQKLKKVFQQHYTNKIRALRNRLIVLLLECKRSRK
Assay [13] deals with T4, Serine/threonine-protein kinase Nek2 (Homo sapiens, UniProt P51955).
T4 sequence (P51955 whole entry): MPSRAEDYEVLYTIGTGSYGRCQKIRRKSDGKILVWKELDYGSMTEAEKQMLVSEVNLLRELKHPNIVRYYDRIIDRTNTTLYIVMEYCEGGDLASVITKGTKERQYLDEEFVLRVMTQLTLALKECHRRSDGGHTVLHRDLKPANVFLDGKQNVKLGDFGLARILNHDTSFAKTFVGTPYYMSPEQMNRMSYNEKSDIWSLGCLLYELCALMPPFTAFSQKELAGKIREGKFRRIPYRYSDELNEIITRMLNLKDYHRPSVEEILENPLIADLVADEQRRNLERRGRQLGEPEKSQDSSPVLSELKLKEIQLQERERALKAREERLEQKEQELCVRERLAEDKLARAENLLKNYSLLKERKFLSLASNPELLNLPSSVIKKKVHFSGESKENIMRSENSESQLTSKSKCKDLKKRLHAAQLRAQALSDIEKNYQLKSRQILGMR

Mitogen-activated protein kinase kinase kinase 4, sequence (Q9Y6R4 whole entry): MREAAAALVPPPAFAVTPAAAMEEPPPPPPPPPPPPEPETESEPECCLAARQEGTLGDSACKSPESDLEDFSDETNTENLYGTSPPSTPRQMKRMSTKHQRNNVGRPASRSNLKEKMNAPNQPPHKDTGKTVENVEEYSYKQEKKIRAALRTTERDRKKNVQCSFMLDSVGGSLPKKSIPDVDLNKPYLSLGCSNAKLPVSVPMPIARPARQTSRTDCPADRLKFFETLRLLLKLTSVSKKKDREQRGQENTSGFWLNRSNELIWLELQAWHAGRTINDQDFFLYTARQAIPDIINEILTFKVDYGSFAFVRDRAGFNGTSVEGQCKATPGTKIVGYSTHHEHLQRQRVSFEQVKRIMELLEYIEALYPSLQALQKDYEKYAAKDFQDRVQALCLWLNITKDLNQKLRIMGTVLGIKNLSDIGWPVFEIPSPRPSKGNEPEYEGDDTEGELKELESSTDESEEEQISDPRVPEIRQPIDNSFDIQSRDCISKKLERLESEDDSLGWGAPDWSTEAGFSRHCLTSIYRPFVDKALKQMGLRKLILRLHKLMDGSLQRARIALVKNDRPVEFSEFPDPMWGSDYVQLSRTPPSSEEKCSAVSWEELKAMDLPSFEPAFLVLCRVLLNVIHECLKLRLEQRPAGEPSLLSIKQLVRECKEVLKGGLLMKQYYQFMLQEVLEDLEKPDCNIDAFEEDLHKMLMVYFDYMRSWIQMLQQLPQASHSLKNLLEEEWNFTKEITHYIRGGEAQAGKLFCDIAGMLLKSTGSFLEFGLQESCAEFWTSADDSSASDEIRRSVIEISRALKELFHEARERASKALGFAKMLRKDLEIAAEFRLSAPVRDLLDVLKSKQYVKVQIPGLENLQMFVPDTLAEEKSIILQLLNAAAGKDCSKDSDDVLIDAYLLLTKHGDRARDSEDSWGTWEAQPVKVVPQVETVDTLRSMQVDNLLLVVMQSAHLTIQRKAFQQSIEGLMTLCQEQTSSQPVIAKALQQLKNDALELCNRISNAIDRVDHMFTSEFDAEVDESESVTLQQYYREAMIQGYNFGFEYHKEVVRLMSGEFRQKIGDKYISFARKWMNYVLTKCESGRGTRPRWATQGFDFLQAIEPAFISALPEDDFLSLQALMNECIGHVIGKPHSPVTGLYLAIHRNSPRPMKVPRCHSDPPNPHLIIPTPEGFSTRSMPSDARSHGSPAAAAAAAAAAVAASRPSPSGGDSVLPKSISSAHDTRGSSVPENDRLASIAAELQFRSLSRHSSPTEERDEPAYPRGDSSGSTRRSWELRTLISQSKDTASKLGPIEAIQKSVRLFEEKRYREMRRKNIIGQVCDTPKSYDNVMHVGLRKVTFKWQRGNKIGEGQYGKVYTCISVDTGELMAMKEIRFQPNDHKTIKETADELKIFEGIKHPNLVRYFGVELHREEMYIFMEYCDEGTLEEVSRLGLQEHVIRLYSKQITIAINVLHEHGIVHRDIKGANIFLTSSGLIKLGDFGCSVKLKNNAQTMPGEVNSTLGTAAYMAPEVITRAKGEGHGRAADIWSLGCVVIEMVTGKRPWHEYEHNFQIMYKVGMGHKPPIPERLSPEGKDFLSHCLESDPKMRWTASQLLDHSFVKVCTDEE
ATP-dependent RNA helicase DDX3X, sequence (O00571 whole entry): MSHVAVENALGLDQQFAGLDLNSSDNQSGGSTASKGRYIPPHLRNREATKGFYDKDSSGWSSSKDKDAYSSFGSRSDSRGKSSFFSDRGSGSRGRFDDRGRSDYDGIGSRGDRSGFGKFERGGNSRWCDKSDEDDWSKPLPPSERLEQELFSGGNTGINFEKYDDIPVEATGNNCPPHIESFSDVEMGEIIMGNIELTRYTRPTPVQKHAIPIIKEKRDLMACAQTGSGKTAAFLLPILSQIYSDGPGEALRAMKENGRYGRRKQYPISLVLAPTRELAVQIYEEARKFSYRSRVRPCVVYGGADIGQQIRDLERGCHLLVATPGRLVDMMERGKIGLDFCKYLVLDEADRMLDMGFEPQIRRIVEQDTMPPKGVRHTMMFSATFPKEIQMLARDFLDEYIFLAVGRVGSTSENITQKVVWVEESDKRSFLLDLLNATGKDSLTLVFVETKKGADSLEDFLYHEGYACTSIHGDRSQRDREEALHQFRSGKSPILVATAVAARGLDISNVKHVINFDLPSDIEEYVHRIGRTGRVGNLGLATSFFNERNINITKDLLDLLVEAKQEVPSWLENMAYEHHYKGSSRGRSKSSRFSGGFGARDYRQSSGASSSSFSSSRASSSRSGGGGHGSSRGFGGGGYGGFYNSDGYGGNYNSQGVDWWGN

For orientation: Kd means the free concentration of one partner at which half of the binding sites on the other are occupied at equilibrium, for simple one-to-one binding. For the compound `C[C@@H](Nc1cc(F)cc(F)c1)c1cc(C(=O)N(C)C)cc2c(=O)cc(N3CCOCC3)oc12` [AZD-8186], the Kd (in assay [1]; in [2]; on Ephrin type-A receptor 4; in assay [3]; in assay [4]; in assay [5]) was > 30 µM (inactive) throughout. The Kd in [6], in assay [7], in [8], in [9], in assay [10] and in assay [11] was > 30 µM (inactive) in each case. The Kd in assay [12] and in assay [13] was > 30 µM (inactive) in each case.

With `COc1cc(OC)c(/C=C/S(=O)(=O)Cc2ccc(OC)c(NCC(=O)O)c2)c(OC)c1` [RIGOSERTIB], the Kd (in assay [1]; in assay [2]; at Ephrin type-A receptor 4; in [3]; in [4]; in assay [5]) was > 30 µM (inactive) in each case. For the same compound, the Kd in assay [6], in assay [7], in assay [8], in [9], in [10] and in assay [11] was > 30 µM (inactive) in each case. In addition, the Kd in assay [12] and in assay [13] was > 30 µM (inactive) throughout.

Regarding `CCS(=O)(=O)N1CC(CC#N)(n2cc(-c3ncnc4[nH]ccc34)cn2)C1` [BARICITINIB], the Kd in assay [2] was > 30 µM (inactive); on Ephrin type-A receptor 4, > 30 µM (inactive); in assay [3], 4.36 µM (active); in assay [4] it was > 30 µM (inactive); in assay [5], > 30 µM (inactive); in assay [6] it was > 30 µM (inactive). Also, the Kd in assay [7], in assay [8], in assay [9], in assay [10], in assay [11] and in [13] was > 30 µM (inactive) each time.

Turning to `C1=C/COCc2cc(ccc2OCCN2CCCC2)Nc2nccc(n2)-c2cccc(c2)COC/1` [PACRITINIB], the Kd was > 30 µM (inactive) in [1]; 2.67 µM (active) in assay [2]; > 30 µM (inactive) at Ephrin type-A receptor 4; > 30 µM (inactive) in [3]; > 30 µM (inactive) in [4]; > 30 µM (inactive) in assay [5]. Besides, the Kd in assay [6], in assay [7], in assay [9], in assay [10], in [11] and in [12] was > 30 µM (inactive) in each case. In [13], the Kd is > 30 µM (inactive).

Turning to `Cn1ncc(Cl)c1-c1cc(C(=O)N[C@H](CN)Cc2cccc(F)c2)sc1Cl` [AFURESERTIB], the Kd in [1] was > 30 µM (inactive); in [2], > 30 µM (inactive); on Ephrin type-A receptor 4, > 30 µM (inactive); in [3], 4.26 µM (active); in [4], > 30 µM (inactive); in assay [5] it was > 30 µM (inactive). Also, the Kd was > 30 µM (inactive) in assay [6]; 3.91 µM (active) in assay [7]; > 30 µM (inactive) in [9]; > 30 µM (inactive) in assay [10]; > 30 µM (inactive) in [11]; > 30 µM (inactive) in [12]. Also, the Kd in assay [13] was > 30 µM (inactive).

`COc1cc(CCc2cc(NC(=O)c3ccc(N4C[C@@H](C)N[C@@H](C)C4)cc3)n[nH]2)cc(OC)c1` [AZD-4547]: the Kd is > 30 µM (inactive) in assay [1]; 0.288 µM (active) in [2]; > 30 µM (inactive) on Ephrin type-A receptor 4; > 30 µM (inactive) in [3]; > 30 µM (inactive) in assay [4]; > 30 µM (inactive) in assay [5]. Further, the Kd in [6], in assay [7], in assay [9], in assay [10], in [11] and in [12] was > 30 µM (inactive) each time. The Kd in assay [13] was > 30 µM (inactive).

On to `C[C@@H]1CN(Cc2ccc(F)cc2)[C@@H](C)CN1C(=O)c1cc2c(C(=O)C(=O)N(C)C)cn(C)c2cc1Cl` [TALMAPIMOD], for which the Kd (in [1]; in assay [2]; at Ephrin type-A receptor 4; in assay [3]; in assay [4]; in [5]) was > 30 µM (inactive) each time. Also, the Kd in [6], in assay [7], in [8], in assay [9], in assay [10] and in [12] was > 30 µM (inactive) each time. The Kd in [13] is > 30 µM (inactive).

`CN1CCC(COc2cnc(-c3cccc(Cn4nc(-c5cccc(C#N)c5)ccc4=O)c3)nc2)CC1` [TEPOTINIB]: the Kd (in assay [2]; at Ephrin type-A receptor 4; in assay [3]; in [4]; in assay [5]; in assay [6]) was > 30 µM (inactive) each time. Besides, the Kd in [7], in assay [8], in assay [9], in [10], in assay [11] and in [12] was > 30 µM (inactive) in each case. Moreover, in assay [13], the Kd was > 30 µM (inactive).

With `CNC(=O)c1ccc(C)c(-n2c(C)cc(OCc3ccc(F)cc3F)c(Br)c2=O)c1` [PH-797804], the Kd (in assay [1]; in [2]; at Ephrin type-A receptor 4; in [3]; in assay [4]; in assay [5]) was > 30 µM (inactive) throughout. The Kd in [6], in assay [7], in assay [9], in assay [10], in [11] and in [12] was > 30 µM (inactive) each time. The Kd in [13] is > 30 µM (inactive).
